Assay results: article PMC10666768, “Optimized peptide nanofibrils as efficient transduction enhancers for in vitro and ex vivo gene transfer” (Frontiers in Immunology, 2023)
Entries after “also recorded” stand apart in the source; their conditions may differ. Peptide text beside a SMILES is read from it.

How the values were obtained:
[1] = system: human NK cells; details: 4-day incubation, propidium iodide, three donors
Experimental: NK cells were isolated from buffy coats of healthy donors by standard density-gradient centrifugation, using Ficoll-Paque (VWR, Cat: 17-1440-03) using the RosetteSep™ Human NK Cell Enrichment Cocktail ([sequence] Technologies, Cat: 15065). NK cells were cultured at 1×10^6 cells/ml in NK MACS medium (Miltenyi Biotec, Cat: 130-114-429) with 5% human AB serum (Sigma Aldrich, Cat: H4522-100ML), 500 U/ml IL-2 (Peprotech, Cat: 200-02) and 140 U/ml IL-15 (Peprotech, Cat: 200-15). […] 1.25×10^5 NK cells were seeded per well in a 48-well plate. […] Propidium Iodide (PI) (Miltenyi Biotec, Cat: 130-093-233) staining was used to determine the viability of NK cells.

[2] = Chemical stability of PNFs by HPLC and MALDI-TOF MS; type: physicochemical; details: 2 mg/ml PNFs in PBS, RT or 37°C, 10 min, 1 h, 24 h, 10 d; reversed-phase C18 HPLC, UV 214 nm
Experimental: RM-8 and D4 were prepared at 2 mg/ml in PBS and were incubated at room temperature (RT) or 37°C for 10 min, 1 hour, 24 hours, and 10 days. Aliquots (25 µL) of both samples were separated after 10 minutes, 1 hour, 24 hours, and 10 days and centrifuged at 13,000 x g for one minute. Supernatants were diluted with 100 µL 10% acetic acid, whereas the pellets were dissolved in 125 µL 6 M guanidinium chloride. All samples were analyzed in an Agilent 1100 Series HPLC system, using a reversed-phase BioBasicTM 18-HPLC column (Thermo Scientific) of dimensions 2.1 x 100 mm and particle size of 5 µm. Gradient elution was used for elution as follows (RM-8): 0 min/5%B, 1 min/20%B, and 15 min/40%B; and for D4: 0 min/5%B, 1 min/15%B, and 15 min/35/%B), being A, 0. 1% TFA in water, and B, 0.1% TFA in acetonitrile. The flow rate was 0.5 mL/min, and the detection was monitored online by UV absorption at 214 nm. ChemStation (version B.04.03, Agilent) was used for data acquisition and the HPLC system’s control.
Mass spectra were obtained with an Axima Confidence MALDI-TOF mass spectrometer (Shimadzu). Measurements were performed in positive ion reflectron mode. The mass range was 100–10000 Da. For each sample, 20 shots were accumulated per profile (100 profiles per spectra) using a laser power of 42% and a laser frequency of 50 Hz. TOFMix MALDI kit (Shimadzu) was used for external mass calibration. […]

[3] = system: human T cells; details: trypan blue after 7 days
[4] = system: NF-κB pathway; assay: THP1-Dual cells, NF-κB pathway (SEAP); type: cell-based; details: 24 h
Experimental: To analyze if PNFs stimulate an immune response, different PNFs concentrations (5, 10, 30 and 50 µg/ml) and 0.1 µg/ml lipopolysaccharide (LPS, InvivoGen, Cat: tlrl-eklps) as a positive control were incubated with 70,000 THP1-Dual cells, a monocyte cell line that allows the simultaneous analysis of the NF-κB and interferon regulatory factor (IRF) pathway, which are major effectors of the innate immune response ([45]). After 24 h, cellular supernatants were analyzed for the activation of the NF-κB pathway by measuring the activity of secreted alkaline phosphatase (SEAP). Therefore, 20 µl supernatant was mixed with 120 µl Alkaline Phosphatase Blue Microwell Substrate (Sigma Aldrich, Cat: AB0100-1KT). After 10 min, 30 µl Alkaline Phosphatase Stop Solution (Sigma Aldrich, Cat: A5852) was added and adsorption at 620 nm was measured using VersaMax Microplate Reader (Molecular Devices). For analysis of IRF pathway, secreted Gaussia Luciferase was measured. 25 µl supernatant was transferred to a white 96 well microtiter plate and Gaussia substrate (82.6 µg/ml Colenterazine, PJK, Cat: 102172) was automatically added according to manufacturer’s protocol and Luminescence was measured by Orion II Microplate Luminometer (Berthold).

[5] = system: TZM-bl cells
Experimental: To determine the effect of peptides on cellular metabolic activity, MTT (Thiazolyl blue tetrazolium bromide) Cell Growth Assay (Merck, Cat: CT02) and CellTiter-Glo Luminescent Cell Viability Assay (Promega, Cat: G7571) were performed. 10,000 TZM-bl cells or 50,000 Jurkat cells were seeded into 96-well plates and treated with indicated concentrations of peptides. For TZM-bl cells, the supernatants were removed after three days and 100 µl MTT (0.5 mg/ml) was added and incubated for 2.5 hours. For Jurkat cells, supernatants were removed after two days, and cells were incubated with 40 μl MTT (1 mg/ml) for 5 hours. Then the MTT solution was removed, and 100 µl 1:1 DMSO-Ethanol was added. The absorption was measured at 590 nm with baseline-corrected at 650 nm using VersaMax Microplate Reader (Molecular Devices). The CellTiter-Glo assay was performed according to the manufacturing protocol. 100 μl CellTiter-Glo Reagent 1:1 diluted in PBS (Gibco, 14200075) was added to pelleted Jurkat cells for 10 min followed by transferring 50 µl to white microplate, and luminescence was recorded by Orion microplate luminometer (Berthold).
(A) TZM-bl cells were treated […]
with different peptide concentrations. MTT assay was performed three days later. […] The cell viability in % was calculated by normalizing sample values to untreated control which was set to 100 %. […]

Row | Compound | NK cell viability [1] | Chemical stability by HPLC [2] | T cell viability after GALV-RV transduction ([3]; four donors) | Activation of NF-κB pathway at 50 µg/ml [4] | Cytotoxicity, TZM-bl cells [5] | NK cell viability at highest concentration ([1]; 30 µg/ml) | Cytotoxic effect on T cells, GALV-RV transduction ([3]; two donors)
1 | CC[C@H](C)[C@H](NC(=O)[C@H](CCCNC(=N)N)NC(=O)[C@@H](N)CCCNC(=N)N)C(=O)N[C@@H](Cc1ccccc1)C(=O)N[C@H](C(=O)N[C@H](C(=O)N[C@@H](CO)C(=O)N[C@@H](CCSC)C(=O)O)[C@@H](C)CC)[C@@H](C)CC [D4] (H-RRIFIISM-OH) | did not show any impact on cell viability | chemically stable for 10 days; also recorded: single peak with unchanged retention time | neither D4 PNF nor the other transduction enhancers affected T cell viability | significant activation of the NF-kB pathway |  |  | 
2 | CC[C@H](C)[C@H](NC(=O)[C@H](Cc1ccccc1)NC(=O)[C@@H](NC(=O)[C@@H](NC(=O)[C@@H](N)CCCNC(=N)N)[C@@H](C)O)[C@@H](C)CC)C(=O)N[C@H](C(=O)N[C@@H](CO)C(=O)N[C@@H](CCSC)C(=O)N[C@@H](Cc1ccc(O)cc1)C(=O)N[C@@H](CCCCN)C(=O)O)[C@@H](C)CC [RK-10] (H-RTIFIISMYK-OH) |  |  |  |  | not being cytotoxic |  | 
3 | CC[C@H](C)[C@H](NC(=O)[C@H](Cc1ccccc1)NC(=O)[C@@H](NC(=O)[C@@H](NC(=O)[C@@H](N)CCCNC(=N)N)[C@@H](C)O)[C@@H](C)CC)C(=O)N[C@H](C(=O)N[C@@H](CO)C(=O)N[C@@H](CCSC)C(=O)O)[C@@H](C)CC [RM-8] (H-RTIFIISM-OH) |  | chemically stable over time; also recorded: chemically stable for 10 days |  |  | not being cytotoxic | slightly reduced cell viability | not showing any cytotoxic effect
